Here are results for twelve compounds from ChEMBL document CHEMBL1201862, “PubChem BioAssay data set” (2004).

Among the test systems are A498; COLO 205; HOP-18; HT-29; K562; M14; NCI-H460; OVCAR-5; RPMI-8226; SF-268; SF-539; SK-MEL-5; SNB-75; UACC-257; BT-549; DU-145; Hs-578T; NCI/ADR-RES; T47D; MDA-N.
Common to all, as to experiment: NCI tumour cell line growth inhibition, 48 h

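Interpolation was linear, between the two tested concentrations surrounding the appropriate level; five concentrations were tested over 48 hours in 96-well plates. GI50: concentration for 50% inhibition of growth.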 The source made the active and inactive calls. No stated cut-off is given here; in the data, active = GI50 up to about 1.1 µM and inactive = higher. Some results are limits rather than exact numbers.

Consider `C=CC(=O)N1C/C(=C\c2ccc(Cl)c(Cl)c2)C(=O)/C(=C/c2ccc(Cl)c(Cl)c2)C1`, for which the GI50 with A498 is 0.63 µM (active); in the assay on COLO 205, 0.112 µM (active); in the assay on HOP-18 it was 0.362 µM (active); with HT-29, 0.0673 µM (active); with K562, 0.0404 µM (active); with M14, 0.226 µM (active). The GI50 with NCI-H460 is 0.152 µM (active); with OVCAR-5, 0.294 µM (active); with RPMI-8226, 0.0246 µM (active); in the assay with SF-268, 0.104 µM (active); in the assay with SF-539, 0.181 µM (active); in the assay with SK-MEL-5, 0.478 µM (active). Also, the values for the GI50 with SNB-75 and in the assay on UACC-257 were 0.187 µM (active) and 0.474 µM (active), respectively.
On to `Oc1ccc2c(O)cc(-c3ccccc3)nc2c1`, for which the GI50 with A498 is 32.1 µM (inactive); in the assay with COLO 205, 17 µM (inactive); in the assay with HOP-18, 26.2 µM (inactive); with HT-29, 23.3 µM (inactive); with K562, 19.2 µM (inactive); in the assay with M14, 19.7 µM (inactive). The GI50 with NCI-H460 is 17.8 µM (inactive); with OVCAR-5 it was 58.9 µM (inactive); in the assay with RPMI-8226 it was 17.5 µM (inactive); with SF-268, 32.4 µM (inactive); with SF-539 it was 37.2 µM (inactive); in the assay on SK-MEL-5, 30.1 µM (inactive). In addition, the GI50 in the assay on SNB-75 was 22.1 µM (inactive); with UACC-257, 21.7 µM (inactive).
`COc1ccc(-c2c(N)[n+]([O-])c3ccccc3[n+]2[O-])cc1OC`: the GI50 in the assay on A498, in the assay on COLO 205, with HOP-18, with HT-29, with K562 and in the assay with M14 was > 100 µM (inactive) in each case. In addition, the GI50 in the assay with NCI-H460, in the assay on OVCAR-5, in the assay on RPMI-8226, with SF-268, in the assay on SF-539 and in the assay with SK-MEL-5 was > 100 µM (inactive) in each case. In addition, the GI50 in the assay with SNB-75 was 65.9 µM (inactive); with UACC-257 it was > 100 µM (inactive).
Consider `CN(C)c1ccc(C(=C(c2ccc(N(C)C)cc2)c2ccc(N(C)C)cc2)c2ccc(N(C)C)cc2)cc1`, for which the GI50 is 18.6 µM (inactive) with A498; 0.568 µM (active) in the assay on COLO 205; 7.01 µM (inactive) in the assay with HOP-18; 13.8 µM (inactive) in the assay with HT-29; 8.09 µM (inactive) with K562; 6.62 µM (inactive) with M14. The GI50 is 15.8 µM (inactive) in the assay with NCI-H460; > 100 µM (inactive) in the assay on OVCAR-5; 7 µM (inactive) in the assay with RPMI-8226; 21.5 µM (inactive) in the assay with SF-268; 13.8 µM (inactive) with SF-539; 16.3 µM (inactive) in the assay with SK-MEL-5. The GI50 was 13.5 µM (inactive) in the assay on SNB-75 and 17.3 µM (inactive) in the assay on UACC-257.
Regarding `Cc1cc2c(c3oc(C4(C)OC4C4OC4C)cc(=O)c13)C(=O)c1c(O)c(C3CC(C)(N(C)C)C(O)C(C)O3)cc(C3CC(N(C)C)C(O)C(C)O3)c1C2=O` (configuration not stated), the GI50 is 0.00011 µM (active) with BT-549; 9.53e-05 µM (active) in the assay with COLO 205; 6.85e-05 µM (active) with DU-145; 0.00069 µM (active) with HOP-18; 0.000175 µM (active) in the assay on HT-29; 0.000349 µM (active) in the assay on Hs-578T. Further, the GI50 with K562 was 0.0025 µM (active); with M14, 8.26e-05 µM (active); with NCI-H460, 0.0025 µM (active); in the assay with NCI/ADR-RES, 0.000118 µM (active); in the assay on OVCAR-5, 8.95e-05 µM (active); with RPMI-8226, 0.000271 µM (active). For the same compound, the GI50 with SF-268 was 2.5e-05 µM (active); in the assay with SF-539, 0.000531 µM (active); in the assay with SK-MEL-5 it was 0.00112 µM (active); with T47D, 0.00018 µM (active); with UACC-257 it was 0.000116 µM (active).
For the compound `Cc1c(Cl)ccc2c1NC(=O)C2(O)CC(=O)c1ccc2ccccc2c1` (configuration not stated), the GI50 was > 100 µM (inactive) in the assay with A498; 85.3 µM (inactive) in the assay with COLO 205; > 100 µM (inactive) with HOP-18; 39.6 µM (inactive) with HT-29; 28.6 µM (inactive) in the assay with K562; 86.1 µM (inactive) with M14. Moreover, the GI50 was 67.1 µM (inactive) in the assay on NCI-H460; > 100 µM (inactive) in the assay with OVCAR-5; 19.1 µM (inactive) in the assay on RPMI-8226; 32.1 µM (inactive) in the assay with SF-268; 49.8 µM (inactive) with SF-539; > 10 µM (inactive) in the assay with SK-MEL-5. The GI50 in the assay on SNB-75 is 14.2 µM (inactive); with UACC-257, 55.8 µM (inactive).
In the case of `Cc1cccc(C)c1NC(=O)/C(Cl)=C(/Cl)C(=O)O`, the GI50 in the assay on A498 is 33.5 µM (inactive); with BT-549, 17.6 µM (inactive); in the assay with COLO 205, 7.11 µM (inactive); in the assay with DU-145 it was 26.5 µM (inactive); in the assay with HOP-18 it was 20.3 µM (inactive); with HT-29, 17.5 µM (inactive). Moreover, the GI50 was 33.3 µM (inactive) in the assay on Hs-578T; 3.23 µM (inactive) with K562; 9.29 µM (inactive) in the assay with M14; 19.2 µM (inactive) in the assay on MDA-N; 30.8 µM (inactive) in the assay with NCI-H460; 20.4 µM (inactive) in the assay with OVCAR-5. Also, the GI50 was 11 µM (inactive) in the assay on RPMI-8226; 17.2 µM (inactive) in the assay with SF-268; 23.1 µM (inactive) with SF-539; 19.9 µM (inactive) in the assay on SK-MEL-5; 20.2 µM (inactive) in the assay on SNB-75; 27.9 µM (inactive) in the assay on T47D. In addition, in the assay with UACC-257, the GI50 was 16.1 µM (inactive).
Turning to `Cc1ccc(S(=O)OC2C3CC4CC(C3)CC2C4)cc1` (configuration not stated), the GI50 in the assay with A498, with COLO 205, in the assay on HOP-18, in the assay with HT-29, in the assay on K562 and in the assay on M14 was > 100 µM (inactive) each time. The GI50 with NCI-H460, in the assay with OVCAR-5, in the assay with RPMI-8226, in the assay with SF-268, with SF-539 and with SK-MEL-5 was > 100 µM (inactive) in each case. Moreover, the GI50 with SNB-75 and in the assay with UACC-257 was > 100 µM (inactive) in each case.
As to `CN/N=C(\C(=O)Nc1ccc([N+](=O)[O-])cc1[N+](=O)[O-])C1NC(=O)NC1=O` (configuration not stated), the GI50 was > 100 µM (inactive) in the assay with A498; > 100 µM (inactive) in the assay with COLO 205; > 100 µM (inactive) with HOP-18; 80.5 µM (inactive) in the assay on HT-29; > 100 µM (inactive) with K562; > 100 µM (inactive) with M14. Besides, the GI50 in the assay with NCI-H460, in the assay with OVCAR-5, with RPMI-8226, in the assay with SF-268, in the assay on SF-539 and in the assay with SK-MEL-5 was > 100 µM (inactive) throughout. The GI50 in the assay on SNB-75 and in the assay with UACC-257 was > 100 µM (inactive) throughout.
Turning to `C=C1C(=O)OC2CC3(C)C=CC(=O)C(=C)C3CC12` (configuration not stated), the GI50 with A498 is 7.46 µM (inactive); in the assay on COLO 205, 1.63 µM (inactive); with HOP-18 it was 3.06 µM (inactive); in the assay on HT-29 it was 1.65 µM (inactive); in the assay with K562 it was 1.71 µM (inactive); in the assay on M14, 1.46 µM (inactive). The GI50 in the assay with NCI-H460 is 2.59 µM (inactive); in the assay on OVCAR-5 it was 3.24 µM (inactive); in the assay on RPMI-8226, 0.589 µM (active); with SF-268 it was 2.59 µM (inactive); in the assay with SF-539, 1.53 µM (inactive); in the assay on SK-MEL-5, 1.72 µM (inactive). For the same compound, the GI50 in the assay on SNB-75 was 3.73 µM (inactive); in the assay on UACC-257, 1.64 µM (inactive).
As for `Clc1ccc2ns[s+]c2c1`, the GI50 was > 100 µM (inactive) in the assay on A498; 16.3 µM (inactive) in the assay on BT-549; 1.79 µM (inactive) in the assay on COLO 205; 8.79 µM (inactive) in the assay with DU-145; 11.7 µM (inactive) in the assay with HOP-18; 3.39 µM (inactive) in the assay with HT-29. Besides, the GI50 is 78 µM (inactive) in the assay with Hs-578T; 0.0611 µM (active) in the assay on K562; 0.222 µM (active) with M14; 3.4 µM (inactive) with MDA-N; 5.83 µM (inactive) with NCI-H460; 6.58 µM (inactive) in the assay with OVCAR-5. Further, the GI50 is 1.81 µM (inactive) in the assay on RPMI-8226; 11.3 µM (inactive) in the assay on SF-268; 3.53 µM (inactive) with SF-539; 15.5 µM (inactive) with SK-MEL-5; > 79.3 µM (inactive) with SNB-75; 11.7 µM (inactive) in the assay with T47D. Moreover, in the assay with UACC-257, the GI50 is 14.5 µM (inactive).
With `NC(=O)NO` [HYDROXYUREA], the GI50 in the assay with A498 is 693 µM (inactive); in the assay on BT-549, 1660 µM (inactive); in the assay on COLO 205, 1740 µM (inactive); with DU-145, 818 µM (inactive); in the assay on HOP-18, 933 µM (inactive); in the assay on HT-29 it was 605 µM (inactive). The GI50 with Hs-578T is 740 µM (inactive); with K562, 877 µM (inactive); in the assay with M14, 597 µM (inactive); in the assay with MDA-N it was 1940 µM (inactive); in the assay on NCI-H460, 344 µM (inactive); in the assay with NCI/ADR-RES, 390 µM (inactive). Also, the GI50 with OVCAR-5 is 601 µM (inactive); in the assay on RPMI-8226, 277 µM (inactive); with SF-268, 524 µM (inactive); in the assay with SF-539 it was 315 µM (inactive); in the assay on SK-MEL-5 it was 507 µM (inactive); in the assay on SNB-75, 817 µM (inactive). For the same compound, the GI50 with T47D is 1490 µM (inactive); in the assay with UACC-257 it was 1810 µM (inactive).
